According to patent US20030018061A1, “Novel remedies with the use of beta 3 agonist” (priority 2000, published 2003):

What was measured:
Mice [1] = assay: Antilipemic effect (II): plasma triglyceride in mice, bezafibrate and β3 agonist; assay type: in vivo; conditions: oral, 2 weeks; administered solely: BEZ 3 mg/kg; compound c, d 0.3 mg/kg; e, g 3 mg/kg; h, i 1 mg/kg
Experimental: Mice were orally administered with bezafibrate (BEZ: 3 mg/kg), a β3 agonist (compound c: 0.3 mg/kg; compound d: 0.3 mg/kg; compound e: 3 mg/kg; compound g: 3 mg/kg; compound h: 1 mg/kg; compound i: 1 mg/kg), or BEZ and a β3 agonist (compound c, compound d, compound e, compound g, compound h, and compound i) in combination (each dosage was the same as the aforementioned) for 2 weeks. Blood was collected thereafter, and the amount of triglyceride contained in blood plasma was measured.

[2] = test system: human urinary bladder compression muscle; assay: Relaxation of carbachol-contracted human urinary bladder compression muscle; assay type: cell-based; conditions: for relaxation of bladder compression muscle, combination with propiverine: 10^−6 M propiverine plus compound (a, b, f, g 10^−9 M; c, d 10^−10 M; e, h, i 10^−8 M); for relaxation of bladder compression muscle, combination with propiverine / relaxation of bladder compression muscle, combination with oxybutynin / relaxation of bladder compression muscle, combination with tolterodine: in comparison with each compound alone; for relaxation of bladder compression muscle, combination with oxybutynin: 10^−9 M oxybutynin plus compound (a, b, f, g 10^−9 M; c 10^−10 M; e, h, i 10^−8 M); for relaxation of bladder compression muscle, combination with tolterodine: 10^−9 M tolterodine plus compound (a, b, f, g 10^−9 M; d 10^−10 M; e, h, i 10^−8 M); for concentration at which the bladder compression muscle was significantly relaxed / concentration at which the muscle was not relaxed significantly: contraction provoked by carbachol (0.5×10^−6 M), each compound alone
[3] = test system: Genetically diabetic mice; assay: Antidiabetic effect (IV): genetically diabetic mice, acarbose and β3 agonist; assay type: in vivo; conditions: oral, 2 weeks; ACA 1 mg/kg; compound c, d 0.3 mg/kg; e, g 3 mg/kg; h, i 1 mg/kg; alone or combined
Experimental: Genetically diabetic mice were orally administered with acarbose (ACA: 1 mg/kg), a β3 agonist (compound c: 0.3 mg/kg; compound d: 0.3 mg/kg; compound e: 3 mg/kg; compound g: 3 mg/kg; compound h: 1 mg/kg; compound i: 1 mg/kg), or ACA and a β3 agonist (compound c, compound d, compound e, compound g, compound h, and compound i) in combination (each dosage was the same as the aforementioned) for 2 weeks. Blood was collected thereafter, and the amount of glucose contained in blood plasma was measured.

Mice [4] = assay: Antidiabetic effect: plasma glucose in mice, insulin and β3 agonist; assay type: in vivo; conditions: 30 min after dosing; INS 0.2 U/kg intraperitoneal; oral compound a 10 mg/kg; c, d 0.3 mg/kg; e, g 3 mg/kg; h, i 1 mg/kg; alone or combined
Experimental: Mice were administered with insulin (INS: 0.2 U/kg, intraperitoneal injection), a β3 agonist (oral administration of compound a: 10 mg/kg; compound c: 0.3 mg/kg; compound d: 0.3 mg/kg; compound e: 3 mg/kg; compound g: 3 mg/kg; compound h: 1 mg/kg; compound i: 1 mg/kg, respectively), or INS and a β3 agonist (compound a, compound c, compound d, compound e, compound g, compound h, and compound i) in combination (each dosage and administration route was the same as the aforementioned), blood was collected after 30 min, and the amount of glucose contained in blood plasma was measured.

[5] = test system: Mice induced with obesity by feeding with a high fat diet; assay: Antiobestic effect (II): body weight of high fat diet obese mice, orlistat and β3 agonist; assay type: in vivo; conditions: oral, 2 weeks; orlistat 1 mg/kg; compound c, d 0.3 mg/kg; e, g 3 mg/kg; h, i 1 mg/kg; alone or combined at same doses
Experimental: (§1) Mice induced with obesity by feeding with a high fat diet for 2 months were orally administered with orlistat (1 mg/kg), a β3 agonist (compound c: 0.3 mg/kg; compound d: 0.3 mg/kg; compound e: 3 mg/kg; compound g: 3 mg/kg; compound h: 1 mg/kg; compound i: 1 mg/kg), or orlistat and a β3 agonist (compound c, compound d, compound e, compound g, compound h, and compound i) in combination (each dosage was the same as the aforementioned) for 2 weeks and bred, and body weight was measured.

[6] = test system: Mice induced with obesity by feeding with a high fat diet; assay: Antiobestic effect (I): body weight of high fat diet obese mice, sibutramine and β3 agonist; assay type: in vivo; conditions: oral, 2 weeks; SIB 1 mg/kg; compound c, d 0.3 mg/kg; e, g 3 mg/kg; h, i 1 mg/kg; alone or combined at same doses
Experimental: as §1, with “sibutramine (SIB: 1” for “orlistat (1”, “SIB” for “orlistat”

[7] = test system: Mice fasted overnight, glucose loaded; assay: Antidiabetic effect (II): plasma glucose after glucose loading in fasted mice, glibenclamide and β3 agonist; assay type: in vivo; conditions: 1 hour after glucose load (1 g/kg s.c.), oral GLI 10 mg/kg, compound a 10 mg/kg, d 0.3 mg/kg, e, g 3 mg/kg, i 1 mg/kg, vs glucose loading only
Experimental: Mice fasted overnight were orally administered with glibenclamide (GLI: 10 mg/kg), a β3 agonist (compound a: 10 mg/kg; compound c: 0.3 mg/kg; compound d: 0.3 mg/kg; compound e: 3 mg/kg; compound g: 3 mg/kg; compound h: 1 mg/kg; compound i: 1 mg/kg), or GLI and a β3 agonist (compound a, compound c, compound d, compound e, compound g, compound h, and compound i) in combination (each dosage was the same as the aforementioned), and immediately glucose (1 g/kg, subcutaneous injection) was loaded. Blood was collected after 1 hour, and the amount of glucose contained in blood plasma was measured.
In this combined use, hypoglycemia, which is a side effect of glibenclamide, was not observed.

[8] = test system: Genetically diabetic mice; assay: Antidiabetic effect (III): genetically diabetic mice, rosiglitazone and β3 agonist; assay type: in vivo; conditions: oral, 2 weeks; ROS 1 mg/kg; compound c, d 0.3 mg/kg; e, g 3 mg/kg; h, i 1 mg/kg; alone or combined
Experimental: Genetically diabetic mice were orally administered with rosiglitazone (ROS: 1 mg/kg), a β3 agonist (compound c: 0.3 mg/kg; compound d: 0.3 mg/kg; compound e: 3 mg/kg; compound g: 3 mg/kg; compound h: 1 mg/kg; compound i: 1 mg/kg), or ROS and a β3 agonist (compound c, compound d, compound e, compound g, compound h, and compound i) in combination (each dosage was the same as the aforementioned) for 2 weeks. Blood was collected thereafter, and the amount of glucose contained in blood plasma was measured.

[9] = test system: salivation induced with pilocarpine; assay: Mouth dryness: suppression of salivation induced with pilocarpine (method of Nagao et al.); assay type: in vivo
Text: Examples of a selectable index of toxicity include mouth dryness, which is cited as a side effect of anticholinergic agents. Such mouth dryness can be measured by evaluating suppression of salivation induced with pilocarpine in accordance with the method of Nagao et al. (Folia Pharmacologica Japonica, Vol. 113, p156-166 (1999)). Further, elevation of blood pressure that is cited as a side effect of sibutramine can also be employed as an index of toxicity. Such elevation of blood pressure can be determined through use of a pressure transducer. Gastrointestinal dysfunction (fatty stool, defecation increase, abdominal pain, impending defecation desire) that is cited as a side effect of orlistat can also be employed as an index of toxicity. Such gastrointestinal dysfunction can be examined by analyzing the stool amount and the stool composition. Promotion of appetite that is cited as a side effect of insulin secretagogue can also be employed as an index of toxicity. Such promotion of appetite can be determined by observing body weight fluctuations using an animal, and hypoglycemia can be determined by investigating the concentration of glucose in blood. Loose passage that is cited as a side effect of α-glucosidase inhibitor can also be employed as an index of toxicity. Such loose passage and diarrhea can be investigated by, in the case of administration to animal, external observation of stool, or by analysis of stool amount and stool composition. Body weight gain that is cited as a side effect of insulin resistance improving agent can also be employed as an index of toxicity. Such body weight gain can be investigated by measurement of body weight after administration to animal. Gastrointestinal dysfunction that is cited as a side effect of HMG-CoA reductase inhibitor can also be employed as an index of toxicity. Such gastrointestinal dysfunction can be investigated by analysis of stool amount and stool composition. Gastrointestinal dysfunction that is cited as a side effect of clofibrate type drugs can also be employed as an index of toxicity. […]

[10] = in the condition of a reduced dosage

Compound | plasma triglyceride level (Mice [1]) | relaxation of bladder compression muscle, combination with propiverine [2] | relaxation of bladder compression muscle, combination with oxybutynin [2] | relaxation of bladder compression muscle, combination with tolterodine [2] | concentration at which the bladder compression muscle was significantly relaxed [2] | concentration at which the muscle was not relaxed significantly [2] | blood glucose level (glucose in blood plasma) [3] | blood glucose level (glucose in blood plasma) (Mice [4]) | body weight [5] | body weight [6] | blood glucose level (glucose in blood plasma) [7] | blood glucose level (glucose in blood plasma) [8] | suppression of salivation (mouth dryness side effect) [9, 10] | suppression of salivation (mouth dryness side effect) ([9]; in vivo)
CN(C)S(=O)(=O)Nc1cc([C@@H](O)CNCCOc2ccc3c(c2)oc2ccccc23)ccc1O [compound g, (R)-N′-[5-[2-[2-(dibenzofuran-3-iloxy)ethylamino]-1-hydroxyethyl]-2-hydroxyphenyl]-N,N-dimethyl sulfonyl amide] | no difference | relaxed significantly | relaxed significantly | relaxed significantly | 10^−7 M | 10^−9 M | no difference | no change in blood glucose level | almost no change in body weight | almost no change in body weight | almost no difference in the blood glucose level | no difference in the blood glucose level |  | 
CS(=O)(=O)Nc1cc([C@@H](O)CNCCOc2ccc3c(c2)[nH]c2ccccc23)ccc1Cl [compound h, (R)-N-[5-[2-[2-(9H-carbazole-2-iloxy)ethylamino]-1-hydroxyethyl]-2-chlorophenyl]methanesulfonamide] | no difference | relaxed significantly | relaxed significantly | relaxed significantly | 10^−6 M | 10^−8 M | no difference | no change in blood glucose level | almost no change in body weight | almost no change in body weight | almost no difference in the blood glucose level | no difference in the blood glucose level |  | 
CS(=O)(=O)Nc1cc([C@@H](O)CNCCOc2ccc3c(c2)[nH]c2ccccc23)ccc1Br [compound i, (R)-N-[5-[2-[2-(9H-carbazole-2-iloxy)ethylamino]-1-hydroxyethyl]-2-bromophenyl]methanesulfonamide] | no difference | relaxed significantly | relaxed significantly | relaxed significantly | 10^−6 M | 10^−8 M | no difference | no change in blood glucose level | almost no change in body weight | almost no change in body weight | almost no difference in the blood glucose level | no difference in the blood glucose level |  | 
CCN(CC)CC#CCOC(=O)C(O)(c1ccccc1)C1CCCCC1 (stereo not drawn) [oxybutynin, reference compound] |  |  |  |  | 10^−8 M | 10^−9 M |  |  |  |  |  |  | observed | 
CCCOC(C(=O)OC1CCN(C)CC1)(c1ccccc1)c1ccccc1 [propiverine, reference compound] |  |  |  |  | 10^−5 M | 10^−6 M |  |  |  |  |  |  | observed | 
Cc1ccc(O)c([C@H](CCN(C(C)C)C(C)C)c2ccccc2)c1 [tolterodine, reference compound] |  |  |  |  | 10^−8 M | 10^−9 M |  |  |  |  |  |  |  | observed
